Data set [1] is described as follows: Stability (cleavage to parent drug) of prodrug suspensions in PBS pH 7.4. The data set is classed as physicochemical. The following applies: for half-life at 0.5 mg/mL: 67 mM phosphate buffer (PBS), PBS pH 7.4, 37° C., read-out: t1/2 in PBS (converted); for apparent pseudo-zero-order rate constant k0: appearance of parent drug in PBS pH 7.4 suspension, 37° C.; for estimated pseudo first-order rate constant khyd: cleavage of prodrug in PBS pH 7.4, 37° C., calculated from k0 and Sprodrug.
Experimental: Suspensions of the prodrugs in 67 mM phosphate buffer pH 7.4 (PBS) were prepared by adding 10 mL PBS to approximately 5 mg prodrug. The suspensions were kept unstirred at 37° C. in an incubator hood. At appropriate time intervals over 23 days, about 500 μL samples were taken and after filtration (disposable syringe filters), the solutions were analyzed immediately by HPLC for parent drug and remaining prodrug. Quantitation of parent drug and prodrug was done from peak area measurements in relations to those of standards analysed by HPLC at the same conditions.
From the observed relatively stable concentration of dissolved prodrugs measured in the suspensions after 8-9 day up to 23 days, the solubilities of the prodrugs (Sprodrug) were determined. In this time interval, the rate of appearance of parent drug was determined and an apparent pseudo-zero-order rate constant (k0) was obtained. By assuming that the dissolution rates were much faster than the conversion of the prodrugs to the parent drug, pseudo first-order rate constants (khyd) for cleavage of the prodrugs were calculated according to:

Data set [2] is described as follows: Solubility of the prodrugs in PBS (67 mM phosphate buffer pH 7.4). The following applies: for solubility thermodynamic: 67 mM phosphate buffer pH 7.4 (PBS), 37 °C, pH 7.4, aqueous buffer, thermodynamic from solid; for Sprodrug ± SD: PBS (67 mM phosphate buffer pH 7.4), 37° C.
Experimental: The determination of the solubility of a prodrug at different pH values of interest according to the present invention is carried by adding excess solid prodrug to a container containing a buffer solution with well-defined pH. The mixture is rotated at constant temperature until an equilibrium between solid prodrug and prodrug in solution has established (that is until the prodrug concentration in the supernatant remains constant). At each measurement the pH of the supernatant is controlled and, if needed, adjusted to the desired pH.
Suspensions of the prodrugs in 67 mM phosphate buffer pH 7.4 (PBS) were prepared by adding 10 mL PBS to approximately 5 mg prodrug. The suspensions were kept unstirred at 37° C. in an incubator hood. At appropriate time intervals over 23 days, about 500 μL samples were taken and after filtration (disposable syringe filters), the solutions were analyzed immediately by HPLC for parent drug and remaining prodrug. Quantitation of parent drug and prodrug was done from peak area measurements in relations to those of standards analysed by HPLC at the same conditions. […] For the diclofenac and ibuprofen prodrugs, the following method was used: Merck Hitachi L 6000 pump connected to Merck Hitachi 4250 UV detector. Reversed phase chromatography was performed using a C18 Gemini® RP column (150×4.6 mm, 5 μm particles) (Phenomenex, Torrance, Calif., USA) equipped with a SecurityGuard precolumn (Phenomenex, Torrance, Calif., USA). The flow rate was set at 1 mL/min and the column effluent was monitored at 230 nm. The mobile phase consisted of 35% (v/v) acetonitrile and 65% (v/v) of 0.1% (v/v) phosphoric acid pH 3.2. The retention times varied in the range of 3 to 30 min.
From the observed relatively stable concentration of dissolved prodrugs measured in the suspensions after 8-9 day up to 23 days, the solubilities of the prodrugs (Sprodrug) were determined.
A short description of data set [3]: Hydrolysis of the prodrugs in 80% human plasma. The data set is classed as in vitro ADME. The following applies: for half-life: read-out: t1/2 in plasma.
Experimental: At 37±0.5° C., the hydrolysis rate of the prodrugs was measured in 80% human plasma. An appropriate aliquot (20-100 μL) of 1 mg/ml prodrug solution in methanol was transferred to 5.0 ml of preheated plasma. At appropriate time intervals, 300 μl sample aliquots were withdrawn and transferred to 600 μl acetonitrile and mixed thoroughly. After centrifugation at 13500 rpm for 5 min, the supernatant was analyzed by HPLC for parent drug and remaining prodrug.
A short description of data set [4]: Solubility at acidic pH, with and without DMA cosolvent. The class given is physicochemical. As to conditions: demineralized water acidified with HCl, 37 °C, pH 2.9, aqueous buffer, thermodynamic from solid, pH 2.9, 37° C., no DMA. As for the experimental part: A suspension of DPX-2-0007 (as hydrochloride salt) was formed by adding 30 mg to 4 mL demineralized water. After rotation of the suspension at 37° C. for 3 days, 1.0 mL sample was taken and after filtration (disposable syringe filters), the solution was diluted in methanol:water 1:1 and analyzed immediately by HPLC for prodrug. […] The pH in the solution was measured to 3.40. The following HPLC method was used: Merck Hitachi L 6200 pump connected to Merck Hitachi 4250 UV detector. Reversed phase chromatography was performed using a RP 18 Symmetry Shields® column (150×4.6 mm, 5 μm particles) equipped with a SecurityGuard precolumn (Phenomenex, Torrance, Calif., USA). […] The retention time of naproxen and DPX-2-0007 were 19 and 5.8 min, respectively.
A suspension of DPX-2-0006 was formed by adding 10 mg to 3 mL demineralized water, 0.05 mL 0.100 M HCl was added to obtain a pH of 3. After rotation of the suspension at 37° C. for 1 days, 0.5 mL sample was taken and after filtration (disposable syringe filters), the solution was diluted in methanol:water 1:1 and analyzed immediately by HPLC for prodrug. […] The HPLC method described in Example 29 was applied and the retention time of DPX-2-0006 was 14 min, respectively. N,N-dimethylacetamide (DMA) was added stepwise to the acidic suspension of DPX-2-0006 and the amount of DPX-2-000 dissolved in the presence of various volumes of DMA was determined after 1-3 days rotation at 37° C. as described above.

Where [5] appears, read: hydrolysis in 80% human plasma at 37° C.

Converted amounts (≈) assume the structure as drawn. “And” between values parts separate entries of the source, which are not always exact repeats. Equal values may be shown once.

Consider 20 compounds from patent US9809557B2 (priority 2011, dated 2017).

As usually defined, the thermodynamic solubility is the concentration in solution at equilibrium with solid. Consider `O=C(Cc1ccccc1Nc1c(Cl)cccc1Cl)OCCc1ccccn1` [DPX-1-0004, 2-(pyridin-2-yl)ethyl 2-(2-((2,6-dichlorophenyl)amino)phenyl)acetate], for which, in data set [1], the half-life at 0.5 mg/mL is 5 days, the “apparent pseudo-zero-order rate constant k0” value was determined as 1.1e-06 M/day and the “estimated pseudo first-order rate constant khyd” value was 0.15 day⁻¹. Besides, in data set [2], the thermodynamic solubility was 3 ± 1 µg/mL (≈ 7.48 µM) and the “Sprodrug ± SD” value is 0.007 ± 0.001 mM. Moreover, in data set [3] (setting [5]), the half-life came to 0.417 h.

Regarding `CC(C)Cc1ccc(C(C)C(=O)OCCn2ccnc2-c2ccccc2)cc1` (stereo not shown) [DPX-3-0007, 2-(2-phenyl-1H-imidazol-1-yl)ethyl 2-(4-isobutylphenyl)propanoate], in data set [2], the solubility (thermodynamic) turned out to be 1 µg/mL (≈ 2.66 µM) and the “Sprodrug ± SD” value turned out to be 0.002 mM.

With `COc1ccc2cc(C(C)C(=O)OCCc3ccccn3)ccc2c1` (stereo not shown) [DPX-2-0004, 2-(pyridin-2-yl)ethyl 2-(6-methoxynaphthalen-2-yl)propanoate], in data set [1], the half-life at 0.5 mg/mL was 21 days, the “apparent pseudo-zero-order rate constant k0” value was determined as 1.7e-06 M/day and the “estimated pseudo first-order rate constant khyd” value is 0.033 day⁻¹. In addition, in data set [2], the thermodynamic solubility is 19 ± 1 µg/mL (≈ 56.6 µM) and the “Sprodrug ± SD” value was determined as 0.052 ± 0.002 mM. Further, the half-life in data set [3] (setting [5]) amounted to 4.78 h.

Consider `O=C(Cc1ccccc1Nc1c(Cl)cccc1Cl)OCCCCCCn1ccnc1` [DPX-1-0009, 6-(1H-imidazol-1-yl)hexyl 2-(2-(2,6-dichlorophenylamino)phenyl)acetate], for which, in data set [2], the thermodynamic solubility is less than 0.3 µg/mL and the “Sprodrug ± SD” value is listed as less than 0.0007 mM.

For `O=C(Cc1ccccc1Nc1c(Cl)cccc1Cl)OCCOCCn1ccnc1-c1ccccc1` [DPX-1-0012, 2-(2-(2-phenyl-1H-imidazol-1-yl)ethoxy)ethyl 2-(2-((2,6-dichlorophenyl)-amino)phenyl)acetate], in data set [2], the solubility (thermodynamic) was less than 0.3 µg/mL and the “Sprodrug ± SD” value is listed as less than 0.0006 mM.

For `CN(CCOC(=O)Cc1ccccc1Nc1c(Cl)cccc1Cl)c1ccccc1` [DPX-1-0002, 2-(methyl(phenyl)amino)ethyl 2-(2-(2,6-dichlorophenylamino)phenyl)acetate], in data set [2], the solubility (thermodynamic) is less than 0.1 µg/mL and the “Sprodrug ± SD” value was less than 0.0002 mM.

As to `O=C(Cc1ccccc1Nc1c(Cl)cccc1Cl)OCCn1cnc2ccccc21` [DPX-1-0006, 2-(1H-benzo[d]imidazol-1-yl)ethyl 2-(2-((2,6-dichlorophenyl)amino)phenyl)acetate], in data set [1], the half-life at 0.5 mg/mL was 4 days, the “apparent pseudo-zero-order rate constant k0” value stood at 2.4e-06 M/day and the “estimated pseudo first-order rate constant khyd” value was 0.17 day⁻¹. In data set [2], the thermodynamic solubility was 7 ± 2 µg/mL (≈ 15.9 µM) and the “Sprodrug ± SD” value is 0.015 ± 0.004 mM. Besides, the half-life in data set [3] (setting [5]) is 0.05 h.

Regarding `COc1ccc2cc(C(C)C(=O)OCCN(C)c3ccccc3)ccc2c1` (stereo not shown) [DPX-2-0002, 2-(methyl(phenyl)amino)ethyl 2-(6-methoxynaphthalen-2-yl)propanoate], in data set [2], the thermodynamic solubility is less than 0.2 µg/mL and the “Sprodrug ± SD” value was less than 0.0006 mM.

In the case of `COc1ccc2cc(C(C)C(=O)OCCCN(C)c3ccccc3)ccc2c1` (stereo not shown) [DPX-2-0003, 3-(methyl(phenyl)amino)propyl 2-(6-methoxynaphthalen-2-yl)propanoate], in data set [2], the solubility (thermodynamic) is less than 1 µg/mL and the “Sprodrug ± SD” value is less than 0.003 mM.

Turning to `Cn1ccnc1CCOC(=O)Cc1ccccc1Nc1c(Cl)cccc1Cl` [DPX-1-0011, 2-(1-methyl-1H-imidazol-2-yl)ethyl 2-(2((2,6-dichlorophenyl)amino)phenyl)acetate], in data set [2], the solubility (thermodynamic) came to 0.1 µg/mL (≈ 0.247 µM) and the “Sprodrug ± SD” value is 0.0002 mM.

For the compound `O=C(Cc1ccccc1Nc1c(Cl)cccc1Cl)OCCn1ccnc1-c1ccccc1` [DPX-1-0007, 2-(2-phenyl-1H-imidazol-1-yl)ethyl 2-(2-((2,6-dichlorophenyl)amino)phenyl)acetate], in data set [1], the half-life at 0.5 mg/mL was 242 days, the “apparent pseudo-zero-order rate constant k0” value is 2.5e-07 M/day and the “estimated pseudo first-order rate constant khyd” value was 0.0029 day⁻¹. In data set [2], the solubility (thermodynamic) came out at 43 ± 2 µg/mL (≈ 92.2 µM) and the “Sprodrug ± SD” value is listed as 0.086 ± 0.003 mM. For the same compound, the half-life in data set [3] (setting [5]) amounted to 0.817 h.

For the compound `CC(C)Cc1ccc(C(C)C(=O)OCCc2ccccn2)cc1` (stereo not shown) [DPX-3-0004, 2-(pyridin-2-yl)ethyl 2-(4-isobutylphenyl)propanoate], in data set [1], the half-life at 0.5 mg/mL was 32 days, the “apparent pseudo-zero-order rate constant k0” value came to 1e-06 M/day and the “estimated pseudo first-order rate constant khyd” value was 0.022 day⁻¹. Moreover, in data set [2], the solubility (thermodynamic) was 15 ± 2 µg/mL (≈ 48.2 µM) and the “Sprodrug ± SD” value is recorded as 0.044 ± 0.004 mM. Moreover, in data set [3] (setting [5]), the half-life was found to be 12.6 h.

As for `CCCc1nccn1CCOC(=O)Cc1ccccc1Nc1c(Cl)cccc1Cl` [DPX-1-0008, 2-(2-propyl-1H-imidazol-1-yl)ethyl 2-(2-(2,6-dichlorophenylamino)phenyl)acetate], in data set [2], the solubility (thermodynamic) was 0.3 µg/mL (≈ 0.694 µM) and the “Sprodrug ± SD” value amounted to 0.0007 mM.

Take `CN(C)c1ccc(CCOC(=O)Cc2ccccc2Nc2c(Cl)cccc2Cl)cc1` [DPX-1-0001, 4-(dimethylamino)phenethyl 2-(2-(2,6-dichlorophenylamino)phenyl)acetate]: in data set [2], the thermodynamic solubility was 0.01 µg/mL (≈ 0.0226 µM) and the “Sprodrug ± SD” value came out at 2e-05 mM.

For `CC(C)Cc1ccc(C(C)C(=O)OCCn2cnc3ccccc32)cc1` (stereo not shown) [DPX-3-0006, 2-(1H-benzo[d]imidazol-1-yl)ethyl 2-(4-isobutylphenyl)propanoate], in data set [1], the half-life at 0.5 mg/mL was 15 days, the “apparent pseudo-zero-order rate constant k0” value came out at 5.7e-07 M/day and the “estimated pseudo first-order rate constant khyd” value was 0.048 day⁻¹. Moreover, in data set [2], the thermodynamic solubility is 4 ± 0.2 µg/mL (≈ 11.4 µM) and the “Sprodrug ± SD” value is recorded as 0.012 ± 0.001 mM. Also, the “stability on incubation in plasma” value in data set [3] (80% human plasma, 37° C., incubation for 10 h) is recorded as “remained intact”. Also, in data set [3] (setting [5]), the t1/2 in plasma result is “stable”.

With `O=C(Cc1ccccc1Nc1c(Cl)cccc1Cl)OCCn1ccnc1` [DPX-1-0005, 2-(1H-imidazol-1-yl)ethyl 2-(2-(2,6-dichlorophenylamino)phenyl)acetate], in data set [2], the solubility (thermodynamic) came out at 1 µg/mL (≈ 2.56 µM) and the “Sprodrug ± SD” value was 0.003 mM.

Regarding `CCCc1nccn1CCCCCCOC(=O)Cc1ccccc1Nc1c(Cl)cccc1Cl` [DPX-1-0010, 6-(2-propyl-1H-imidazol-1-yl)hexyl 2-(2-(2,6-dichiorophenylamino)phenyl)acetate], in data set [2], the thermodynamic solubility is less than 0.4 µg/mL and the “Sprodrug ± SD” value is less than 0.0008 mM.

Consider `COc1ccc2cc(C(C)C(=O)OCCc3ccc(N(C)C)cc3)ccc2c1` (stereo not shown) [DPX-2-0001, 4-(dimethylamino)phenethyl 2-(6-methoxynaphthalen-2-yl)propanoate], for which, in data set [2], the thermodynamic solubility was less than 0.3 µg/mL and the “Sprodrug ± SD” value is given as less than 0.0008 mM.

Usually solubility stands for the dissolved amount per volume that the medium holds. The compound `COc1ccc2cc(C(C)C(=O)OCCn3cnc4ccccc43)ccc2c1` (stereo not shown) [DPX-2-0006, 2-(1H-benzo[d]imidazol-1-yl)ethyl 2-(6-methoxynaphthalen-2-yl)propanoate] returned a solubility at 1 day in data set [4] of 180 µg/mL (≈ 481 µM). For the same compound, in data set [1], the half-life at 0.5 mg/mL was 11 days, the “apparent pseudo-zero-order rate constant k0” value was 1e-06 M/day and the “estimated pseudo first-order rate constant khyd” value is 0.066 day⁻¹. The “Sprodrug ± SD” value in data set [2] was 5 ± 1 μg/mL and 0.015 ± 0.002 mM. Also, the half-life in data set [3] (setting [5]) was 8.52 h.

For `COc1ccc2cc(C(C)C(=O)OCCn3ccnc3)ccc2c1` (stereo not shown), in data set [2], the solubility (thermodynamic) was found to be 146 ± 5 µg/mL (≈ 450 µM) and the “Sprodrug ± SD” value turned out to be 0.45 ± 0.02 mM. The half-life in data set [3] (setting [5]) turned out to be 1.07 h.
